The term IC50 denotes the concentration at which inhibition is half-maximal.

We go through one compound from US12338199B2, “Bis-octahydrophenanthrene carboxamides and protein conjugates thereof” (REGENERON PHARMACEUTICALS, INC., priority 2017, dated 2025).

SMILES strings stand for the structures.

One test relates to ABCA1. Nature of the test: ABCA1 mRNA induction in differentiated THP-1 macrophages (TaqMan). Format: cell-based, human. Conditions: THP1 macrophages, 24-hour treatment; magnitude in words. As to the method:
To determine the ability of LXR agonists to activate ABCA1 and ABCG1 genes, the mRNA levels of these two genes in differentiated macrophages was measured. […] Cells were differentiated into macrophages by treatment with 100 nM Phorbol-12 myristate 13-acetate (Sigma, # P8139), which was added to the media described above, for 72 hours. […] Chloroform was then used for phase separation. The aqueous phase, containing total RNA, was purified using MagMAX™-96 for Microarrays Total RNA Isolation Kit (Ambion, Cat # AM1830) and reverse-transcribed into cDNA using SuperScript® VILO™ Master Mix (Invitrogen, Cat #11755050) as per the manufacturer's instructions. TaqMan® was performed using Gene Expression Master Mix, the ABI 7900HT Sequence Detection System (Applied Biosystems) and the primers and probes indicated below in Table 9. The GAPDH gene was used as the internal control gene to normalize any cDNA input differences.
(In general: Quantitative PCR measures a nucleic acid by following its amplification.)

In another test the target is T1, LXR beta (Homo sapiens, UniProt P55055).
T1 construct: LXR alpha or beta LBD-GST; purchased ThermoFisher PV4658
T1 sequence (P55055 222-460 limits assumed): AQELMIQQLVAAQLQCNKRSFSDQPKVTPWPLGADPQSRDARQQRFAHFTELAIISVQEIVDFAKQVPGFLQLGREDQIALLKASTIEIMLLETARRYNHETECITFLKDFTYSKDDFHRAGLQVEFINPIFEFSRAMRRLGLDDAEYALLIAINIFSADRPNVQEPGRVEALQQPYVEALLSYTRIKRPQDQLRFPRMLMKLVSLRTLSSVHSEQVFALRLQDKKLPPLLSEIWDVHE
Kind of test: LanthaScreen TR-FRET LXR beta Coactivator Assay (cell-free binding). Particulars: TR-FRET, 12-point curve; read-out: Cell free binding LXRβ IC50. (In TR-FRET formats the signal depends on donor and acceptor labels being close together.)

The target of a further test is T2, LXR alpha (Homo sapiens, UniProt Q13133).
T2 construct: LXR alpha or beta LBD-GST; purchased ThermoFisher PV4655
T2 sequence (Q13133 209-447 limits assumed): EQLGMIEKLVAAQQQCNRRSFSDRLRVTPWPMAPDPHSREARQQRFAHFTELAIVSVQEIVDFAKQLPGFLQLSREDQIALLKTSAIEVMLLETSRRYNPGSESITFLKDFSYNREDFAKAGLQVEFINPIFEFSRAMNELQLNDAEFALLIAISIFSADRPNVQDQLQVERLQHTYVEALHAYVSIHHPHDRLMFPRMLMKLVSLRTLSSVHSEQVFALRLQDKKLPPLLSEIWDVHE
Kind of test: LanthaScreen TR-FRET LXR alpha Coactivator Assay (cell-free binding). Particulars: TR-FRET, 12-point curve; read-out: Cell free binding LXRα IC50.

With `C[C@]1(C(=O)NC(=O)[C@@]2(C)CCC[C@]3(C)c4cc(O)ccc4CC[C@@H]23)CCC[C@]2(C)c3cc(N)ccc3CC[C@@H]12` [Compound 9d, (1S,4aS,10aR)—N-[(1S,4aS,10aR)-6-Amino-1,4a-dimethyl-1,2,3,4,4a,9,10,10a-octahydrophenanthrene-1-carbonyl]-6-hydroxy-1,4a-dimethyl-1,2,3,4,4a,9,10,10a-octahydrophenanthrene-1-carboxamide], the “ABCA1 induction EC50” value with ABCA1 is recorded as “sub-picomolar”. Further, the IC50 at LXR beta and on LXR alpha was less than 0.01 µM in each case.
